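Method: 48-hour compound exposure of cells in 96-well plates, five concentrations, linear interpolation of endpoints. Here, GI50 denotes the concentration required for 50% inhibition of growth.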 Calls of active or inactive are those of the source. Rule as the data show it: active = GI50 up to about 1.1 µM and inactive = higher.
Assays:
Test in all cases: NCI tumour cell line growth inhibition, 48 h
[1] = test system: KM12
[2] = test system: A549
[3] = test system: NCI-H23
[4] = test system: ACHN
[5] = test system: NCI-H226
[6] = test system: HCC 2998
[7] = test system: OVCAR-3
[8] = test system: SN12C
[9] = test system: A498
[10] = test system: SF-268
[11] = test system: LOX IMVI
[12] = test system: UO-31
[13] = test system: SK-OV-3
[14] = test system: SW-620
[15] = test system: Malme-3M
[16] = test system: HCT-15
[17] = test system: RPMI-8226

Compound	GI50 [1]	GI50 [2]	GI50 [3]	GI50 [4]	GI50 [5]	GI50 [6]	GI50 [7]	GI50 [8]	GI50 [9]	GI50 [10]	GI50 [11]	GI50 [12]	GI50 [13]	GI50 [14]	GI50 [15]	GI50 [16] [µM]	GI50 [17]
Cc1c(C(=N)N)oc2ccccc12	> 100 µM (inactive)	> 100 µM (inactive)	> 100 µM (inactive)	> 100 µM (inactive)	> 100 µM (inactive)	> 100 µM (inactive)	> 100 µM (inactive)	> 100 µM (inactive)	> 100 µM (inactive)	> 100 µM (inactive)	> 100 µM (inactive)	> 100 µM (inactive)	> 100 µM (inactive)	> 100 µM (inactive)	> 100 µM (inactive)	–	–
CCc1ccc(Nc2ccc([N+](=O)[O-])cc2[N+](=O)[O-])cc1	52.5 µM (inactive)	40.9 µM (inactive)	71.1 µM (inactive)	> 100 µM (inactive)	34.2 µM (inactive)	> 100 µM (inactive)	44.4 µM (inactive)	–	23.7 µM (inactive)	–	–	26.2 µM (inactive)	> 100 µM (inactive)	> 100 µM (inactive)	> 100 µM (inactive)	96.4	39.1 µM (inactive)
CN(C)P(=O)(/C(N)=N/Nc1ccc([N+](=O)[O-])cc1)N(C)C	> 100 µM (inactive)	> 100 µM (inactive)	62.4 µM (inactive)	> 100 µM (inactive)	> 100 µM (inactive)	> 100 µM (inactive)	> 100 µM (inactive)	> 100 µM (inactive)	0.558 µM (active)	> 100 µM (inactive)	> 100 µM (inactive)	> 100 µM (inactive)	–	> 100 µM (inactive)	> 100 µM (inactive)	> 100	> 100 µM (inactive)
CC1=Nc2ccccc2S(=O)(=O)N1	> 100 µM (inactive)	> 100 µM (inactive)	> 100 µM (inactive)	> 100 µM (inactive)	> 100 µM (inactive)	> 100 µM (inactive)	> 100 µM (inactive)	> 100 µM (inactive)	> 100 µM (inactive)	> 100 µM (inactive)	> 100 µM (inactive)	> 100 µM (inactive)	> 100 µM (inactive)	> 100 µM (inactive)	> 100 µM (inactive)	> 100	–
COC(=O)c1cc2cc(OC)c(OC)cc2cc(C(=O)OC)c1=O	> 100 µM (inactive)	> 100 µM (inactive)	> 100 µM (inactive)	> 100 µM (inactive)	–	> 100 µM (inactive)	> 100 µM (inactive)	> 100 µM (inactive)	> 100 µM (inactive)	> 100 µM (inactive)	87.3 µM (inactive)	> 100 µM (inactive)	> 100 µM (inactive)	35.3 µM (inactive)	> 100 µM (inactive)	> 100	> 100 µM (inactive)
O=C(CCN1CCN(c2ccccc2)CC1)N1CCc2c([nH]c3ccccc23)C1c1cccnc1 (centres undefined)	18 µM (inactive)	14.8 µM (inactive)	21 µM (inactive)	20 µM (inactive)	25.9 µM (inactive)	21.7 µM (inactive)	16.7 µM (inactive)	15.2 µM (inactive)	19.1 µM (inactive)	–	16.1 µM (inactive)	11.5 µM (inactive)	18.1 µM (inactive)	17.2 µM (inactive)	19.1 µM (inactive)	15.2	> 10 µM (inactive)
O=C1c2ccccc2C(=O)C2C3c4ccccc4C(c4ccccc43)C12 (centres undefined)	28.2 µM (inactive)	28.7 µM (inactive)	41.7 µM (inactive)	30.6 µM (inactive)	77.3 µM (inactive)	36.3 µM (inactive)	19.5 µM (inactive)	23.9 µM (inactive)	–	13.4 µM (inactive)	13.5 µM (inactive)	21.8 µM (inactive)	24.9 µM (inactive)	> 100 µM (inactive)	13.1 µM (inactive)	39	10.9 µM (inactive)
N=C1NC2(O)C(=O)c3ccccc3C2(O)N1 (centres undefined)	> 100 µM (inactive)	> 100 µM (inactive)	> 100 µM (inactive)	> 100 µM (inactive)	> 100 µM (inactive)	–	> 100 µM (inactive)	> 100 µM (inactive)	> 100 µM (inactive)	> 100 µM (inactive)	> 100 µM (inactive)	–	> 100 µM (inactive)	> 100 µM (inactive)	> 100 µM (inactive)	> 100	> 100 µM (inactive)
CC(O)c1ccc[n+](Cc2ccccc2)c1 (centres undefined)	> 400 µM (inactive)	> 400 µM (inactive)	> 400 µM (inactive)	> 400 µM (inactive)	> 400 µM (inactive)	> 400 µM (inactive)	> 400 µM (inactive)	> 400 µM (inactive)	–	> 400 µM (inactive)	> 400 µM (inactive)	–	> 400 µM (inactive)	> 400 µM (inactive)	> 400 µM (inactive)	> 400	> 400 µM (inactive)
